Experimental findings from US20250161281A1, “EMOPAMIL-BINDING PROTEIN INHIBITORS AND USES THEREOF” (BIOGEN MA INC., priority 2022, published 2025) are described below.

The target of the assay is T1, EBP (Homo sapiens, UniProt Q15125).
T1 construct: HEK293T cells were utilized as the source of EBP enzyme; endogenous in cells; host or cells: HEK293T
T1 sequence (Q15125 whole entry): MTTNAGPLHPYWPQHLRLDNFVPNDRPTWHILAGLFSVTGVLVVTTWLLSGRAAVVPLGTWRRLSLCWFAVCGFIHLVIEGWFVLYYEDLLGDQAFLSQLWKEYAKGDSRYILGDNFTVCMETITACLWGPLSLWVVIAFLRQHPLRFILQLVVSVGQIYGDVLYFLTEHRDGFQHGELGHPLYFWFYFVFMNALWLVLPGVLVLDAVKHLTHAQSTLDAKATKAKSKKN
The experiment in a line: EBP Functional Assay (EBP immunoaffinity LC-MS assay). It is filed as biochemical. The following applies: HEK293T cells as source of EBP enzyme; 30 min with inhibitor, then zymosterol-d5, 37° C. for 4 h; percent conversion by LC-APCI MRM MS. How it is done: The EBP immunoaffinity (IA) LC-MS assay measures the potency of small molecule inhibitors of EBP by quantifying their concentration-dependent changes in the enzyme's substrate and product using liquid chromatography atmospheric pressure chemical ionization multiple reaction monitoring mass spectrometry (LC-APCI MRM MS). HEK293T cells were utilized as the source of EBP enzyme. The enzyme was incubated with the small molecule inhibitors at variable concentrations for 30 min. Deuterated form of EBP substrate, zymosterol-d5 (Avanti Polar Lipids, Cat #700068P-1 mg), was then added and the plate was incubated at 37° C. for 4 h. Finally, the sterol isomers were extracted and injected to LC-APCI MRM MS. MRM transition used for the quantification for both zymosterol and dihydrolathosterol (substrate and product of EBP enzymatic reaction, respectively) is 372.3-203.2, CE 30 and DP 80 in positive ion mode. Percent conversion of the zymosterol-d5 to dehydrolathosterol-d5 was used to derive IC50 curves. Tasin-1 (1′-[(4-Methoxyphenyl)sulfonyl]-4-methyl-1,4′-bipiperidine, CAS 792927-06-1) was used as the reference small molecule inhibitor. Percent conversion versus the compound concentration data were fit to the following 4-parameter logistic model to generate IC50 curves: […]
Turning to `Cc1nonc1S(=O)(=O)N1[C@@H]2CC[C@H]1C[C@@H](N1CCC(C)CC1)C2` [Example 1, 3-Methyl-4-(((1R,3r,5S)-3-(4-methylpiperidin-1-yl)-8-azabicyclo[3.2.1]octan-8-yl)sulfonyl)-1,2,5-oxadiazole], the IC50 was below 50 nM.

For `CC1CCN([C@H]2C[C@H]3CC[C@@H](C2)N3S(=O)(=O)c2cnc(C3CCOCC3)o2)CC1` [Example 2, 5-(((1R,3r,5S)-3-(4-Methylpiperidin-1-yl)-8-azabicyclo[3.2.1]octan-8-yl)sulfonyl)-2-(tetrahydro-2H-pyran-4-yl)oxazole], the IC50 is below 50 nM.

Consider `COc1nc(C)ccc1S(=O)(=O)N1[C@@H]2CC[C@H]1C[C@H](N1CCC(C)CC1)C2` [Example 3, (1R,3s,5S)-8-((2-Methoxy-6-methylpyridin-3-yl)sulfonyl)-3-(4-methylpiperidin-1-yl)-8-azabicyclo[3.2.1]octane], for which the IC50 is below 50 nM.

As to `COCn1ncc(Cl)c1S(=O)(=O)N1[C@@H]2CC[C@H]1C[C@H](N1CCC(C)CC1)C2` [Example 4, (1R,3s,5S)-8-((4-Chloro-1-(methoxymethyl)-1H-pyrazol-5-yl)sulfonyl)-3-(4-methylpiperidin-1-yl)-8-azabicyclo[3.2.1]octane], the IC50 is below 50 nM.

Turning to `CC1CCN([C@@H]2C[C@H]3CC[C@@H](C2)N3S(=O)(=O)c2ccc3c(c2)CC(C)(C)C(=O)N3)CC1` [Example 5, 3,3-Dimethyl-6-(((1R,3s,5S)-3-(4-methylpiperidin-1-yl)-8-azabicyclo[3.2.1]octan-8-yl)sulfonyl)-3,4-dihydroquinolin-2(1H)-one], the IC50 was below 50 nM.

In the case of `CC1CCN([C@@H]2C[C@H]3CC[C@@H](C2)N3S(=O)(=O)c2cnc(C3CCOCC3)o2)CC1` [Example 6, 5-(((1R,3s,5S)-3-(4-Methylpiperidin-1-yl)-8-azabicyclo[3.2.1]octan-8-yl)sulfonyl)-2-(tetrahydro-2H-pyran-4-yl)oxazole], the IC50 was below 50 nM.

The compound `CC1CCN([C@@H]2C[C@H]3CC[C@@H](C2)N3S(=O)(=O)c2ccc3c(c2)COCC3)CC1` [Example 7, (1R,3s,5S)-8-(Isochroman-7-ylsulfonyl)-3-(4-methylpiperidin-1-yl)-8-azabicyclo[3.2.1]octane] returned a concentration for half-maximal inhibition (IC50) below 50 nM.

Compound `COCc1ccc(S(=O)(=O)N2[C@@H]3CC[C@H]2C[C@H](N2CCC(C)CC2)C3)o1` [Example 8, (1R,3s,5S)-8-((5-(Methoxymethyl)furan-2-yl)sulfonyl)-3-(4-methylpiperidin-1-yl)-8-azabicyclo[3.2.1]octane] registered an IC50 below 50 nM.

As to `CC1CCN([C@@H]2C[C@H]3CC[C@@H](C2)N3S(=O)(=O)c2c3c(nn2C)CCOC3)CC1` [Example 9, 2-Methyl-3-(((1R,3s,5S)-3-(4-methylpiperidin-1-yl)-8-azabicyclo[3.2.1]octan-8-yl)sulfonyl)-2,4,6,7-tetrahydropyrano[4,3-c]pyrazole], the IC50 was below 50 nM.

On to `CC1CCN([C@@H]2C[C@H]3CC[C@@H](C2)N3S(=O)(=O)c2cc(-c3ccccc3)n[nH]2)CC1` [Example 10, (1R,3s,5S)-3-(4-Methylpiperidin-1-yl)-8-((3-phenyl-1H-pyrazol-5-yl)sulfonyl)-8-azabicyclo[3.2.1]octane], for which the IC50 was below 50 nM.

On to `CC1CCN([C@@H]2C[C@H]3CC[C@@H](C2)N3S(=O)(=O)c2cn3c(n2)CCCC3C)CC1` (stereo partly drawn) [Example 11, 5-Methyl-2-(((1R,3s,5S)-3-(4-methylpiperidin-1-yl)-8-azabicyclo[3.2.1]octan-8-yl)sulfonyl)-5,6,7,8-tetrahydroimidazo[1,2-a]pyridine], for which the IC50 was below 50 nM.

In turn, `Cc1cnn(C)c1S(=O)(=O)N1[C@@H]2CC[C@H]1C[C@H](N1CCC(C)CC1)C2` [Example 12, (1R,3s,5S)-8-((1,4-Dimethyl-1H-pyrazol-5-yl)sulfonyl)-3-(4-methylpiperidin-1-yl)-8-azabicyclo[3.2.1]octane] displayed an IC50 below 50 nM.

Compound `CCn1nccc1S(=O)(=O)N1[C@@H]2CC[C@H]1C[C@H](N1CCC(C)CC1)C2` [Example 13, (1R,3s,5S)-8-((1-Ethyl-1H-pyrazol-5-yl)sulfonyl)-3-(4-methylpiperidin-1-yl)-8-azabicyclo[3.2.1]octane] came in with an IC50 below 50 nM.

For `O=S(=O)(c1ccc(OC(F)F)cc1)N1C2CCC1CC(NC1CCC1O)C2` (centres unmarked) [Example 14, 2-((8-((4-(Difluoromethoxy)phenyl)sulfonyl)-8-azabicyclo[3.2.1]octan-3-yl)amino)cyclobutan-1-ol], the IC50 was below 50 nM.

Turning to `O=S(=O)(c1ccc(OC(F)F)cc1)N1C2CCC1CC(N1C3CCCC1CC(F)(F)C3)C2` (centres unmarked) [Example 16, 9-(8-((4-(Difluoromethoxy)phenyl)sulfonyl)-8-azabicyclo[3.2.1]octan-3-yl)-3,3-difluoro-9-azabicyclo[3.3.1]nonane], the IC50 is below 50 nM.

The compound `O=S(=O)(c1ccc(OC(F)F)cc1)N1[C@@H]2CC[C@H]1C[C@@H](NCC1(O)CCOCC1)C2` [Example 17, 4-((((1R,3r,5S)-8-((4-(Difluoromethoxy)phenyl)sulfonyl)-8-azabicyclo[3.2.1]octan-3-yl)amino)methyl)tetrahydro-2H-pyran-4-ol] had an IC50 below 50 nM.

`O=S(=O)(c1ccc(OC(F)F)cc1)N1[C@@H]2CC[C@H]1C[C@H](NCC1(O)CCOCC1)C2` [Example 18, 4-((((1R,3s,5S)-8-((4-(Difluoromethoxy)phenyl)sulfonyl)-8-azabicyclo[3.2.1]octan-3-yl)amino)methyl)tetrahydro-2H-pyran-4-ol]: the IC50 is below 50 nM.

`O=S(=O)(c1ccc(OC(F)F)cc1)N1C2CCC1CC(NCC1CCOCC1)C2` (centres unmarked) [Example 19, 8-((4-(Difluoromethoxy)phenyl)sulfonyl)-N-((tetrahydro-2H-pyran-4-yl)methyl)-8-azabicyclo[3.2.1]octan-3-amine] had an IC50 below 50 nM.

Compound `CC1CCN([C@H]2C[C@H]3CC[C@@H](C2)N3S(=O)(=O)c2ccc(OC(F)F)cc2)CC1` [Example 20, (1R,3r,5S)-8-((4-(difluoromethoxy)phenyl)sulfonyl)-3-(4-methylpiperidin-1-yl)-8-azabicyclo[3.2.1]octane] yielded an IC50 below 50 nM.

In turn, `CC1CCN([C@@H]2C[C@H]3CC[C@@H](C2)N3S(=O)(=O)c2ccc(OC(F)F)cc2)CC1` [Example 21, (1R,3s,5S)-8-((4-(difluoromethoxy)phenyl)sulfonyl)-3-(4-methylpiperidin-1-yl)-8-azabicyclo[3.2.1]octane] came in with an IC50 below 50 nM.

On to `CC1(CN[C@@H]2C[C@H]3CC[C@@H](C2)N3S(=O)(=O)c2ccc(OC(F)F)cc2)COC1` [Example 28, (1R,3s,5S)-8-((4-(Difluoromethoxy)phenyl)sulfonyl)-N-((3-methyloxetan-3-yl)methyl)-8-azabicyclo[3.2.1]octan-3-amine], for which the IC50 was below 50 nM.

`O=S(=O)(c1ccc(OC(F)F)cc1)N1[C@@H]2CC[C@H]1C[C@H](NCC1CCOCC1)C2` [Example 29, (1R,3s,5S)-8-((4-(Difluoromethoxy)phenyl)sulfonyl)-N-((tetrahydro-2H-pyran-4-yl)methyl)-8-azabicyclo[3.2.1]octan-3-amine] registered an IC50 below 50 nM.

As for `CC12CC(NC3CC4CCC(C3)N4S(=O)(=O)c3ccc(OC(F)F)cc3)(CO1)C2` (centres unmarked) [Example 30, 8-((4-(Difluoromethoxy)phenyl)sulfonyl)-N-(1-methyl-2-oxabicyclo[2.1.1]hexan-4-yl)-8-azabicyclo[3.2.1]octan-3-amine], the half-inhibitory concentration (IC50) is below 50 nM.

`O=S(=O)(c1ccc(OC(F)F)cc1)N1[C@@H]2CC[C@H]1C[C@H](NCC1COC1)C2` [Example 31, (1R,3s,5S)-8-((4-(Difluoromethoxy)phenyl)sulfonyl)-N-(oxetan-3-ylmethyl)-8-azabicyclo[3.2.1]octan-3-amine] showed an IC50 below 50 nM.

`O=S(=O)(c1ccc(OC(F)F)cc1)N1[C@@H]2CC[C@H]1C[C@@H](NCC1CCOCC1)C2` [Example 32, (1R,3r,5S)-8-((4-(Difluoromethoxy)phenyl)sulfonyl)-N-((tetrahydro-2H-pyran-4-yl)methyl)-8-azabicyclo[3.2.1]octan-3-amine]: the IC50 is below 50 nM.

`O=S(=O)(c1ccc(OC(F)F)cc1)N1[C@@H]2CC[C@H]1C[C@](O)(CN1CCOCC1)C2` [Example 33, (1R,3r,5S)-8-((4-(Difluoromethoxy)phenyl)sulfonyl)-3-(morpholinomethyl)-8-azabicyclo[3.2.1]octan-3-ol] gave an IC50 below 50 nM.

In turn, `O=S(=O)(c1ccc(OC(F)F)cc1)N1[C@@H]2CC[C@H]1C[C@@](O)(CN1CCOCC1)C2` [Example 34, (1R,3s,5S)-8-((4-(Difluoromethoxy)phenyl)sulfonyl)-3-(morpholinomethyl)-8-azabicyclo[3.2.1]octan-3-ol] yielded a concentration for half-maximal inhibition (IC50) of 50 to 150 nM.

In turn, `O=S(=O)(c1c(F)cc(OC(F)F)cc1F)N1[C@@H]2CC[C@H]1C[C@H](CN1CCOCC1)C2` [Example 35, 4-(((1R,3s,5S)-8-((4-(Difluoromethoxy)-2,6-difluorophenyl)sulfonyl)-8-azabicyclo[3.2.1]octan-3-yl)methyl)morpholine] yielded an IC50 below 50 nM.

For the compound `Cc1cc(S(=O)(=O)N2[C@@H]3CC[C@H]2C[C@H](CN2CCOCC2)C3)n(C)n1` [Example 36, 4-(((1R,3s,5S)-8-((1,3-Dimethyl-1H-pyrazol-5-yl)sulfonyl)-8-azabicyclo[3.2.1]octan-3-yl)methyl)morpholine], the concentration for half-maximal inhibition (IC50) is below 50 nM.
